According to patent US10357493B2, “Metalloenzyme inhibitor compounds” (Selenity Therapeutics (Bermuda), Ltd., priority 2017, dated 2019):
Where two headings read alike, the source gives them in different places.

What was measured:
HDAC3/NCOR2 = HDAC3/NCOR2 (Homo sapiens (Human), UniProt O15379); assay: HDAC3 enzymatic assay; format: biochemical; conditions: selectivity profile; read-out: HDAC Enzyme IC50, HDAC 3
Description: (§1) All enzymatic reactions were conducted in duplicate at room temperature for 17 hours in a 50 μl mixture containing HDAC assay buffer (50 mM Tris-HCl, pH 7.4, 137 mM NaCl, 2.7 mM KCl, 0.05% Tween 20, 5 μg BSA), an HDAC substrate, an HDAC enzyme, and a test compound. Compound dilution was prepared ten-fold higher than the final concentration of the compounds with 10% DMSO in HDAC assay buffer and 5 μl of the dilution was added to a 50 μl reaction so that the final concentration of DMSO is 1% in all of reactions. After enzymatic reactions, 50 μl of HDAC Developer was added to each well and the plate was incubated at room temperature for an additional 20 minutes. Fluorescence intensity was measured at an excitation of 360 nm and an emission of 460 nm using a Tecan Infinite M1000 or Biotek Synergy microplate reader.
(§2) The fluorescent intensity data were analyzed using the computer software, Graphpad Prism. In the absence of the compound, the fluorescent intensity (Ft) in each data set was defined as 100% activity. In the absence of HDAC, the fluorescent intensity (Fb) in each data set was defined as 0% activity. The percent activity in the presence of each compound was calculated according to the following equation: % activity=(F−Fb)/(Ft−Fb), where F=the fluorescent intensity in the presence of the compound.
(§3) The values of % activity versus a series of compound concentrations were then plotted using non-linear regression analysis of Sigmoidal dose-response curve generated with the equation Y=B+(T−B)/1+10((Log EC50−X)×Hill Slope), where Y=percent activity, B=minimum percent activity, T=maximum percent activity, X=logarithm of compound and Hill Slope=slope factor or Hill coefficient. The IC50 value was determined by the concentration causing a half-maximal percent activity.
(§4) HDAC1 enzymatic assays contained 0.5 ng HDAC1 and 10 uM of HDAC substrate. HDAC2 enzymatic assays contained 0.5 ng HDAC2 and 10 uM of HDAC substrate. HDAC3 enzymatic assays contained 0.4 ng HDAC3/NCOR2 and 10 uM of HDAC substrate. HDAC4 enzymatic assays contained 0.02 ng HDAC4 and 2 uM of HDAC substrate. HDAC5 enzymatic assays contained 0.5 ng HDAC5 and 2 uM of HDAC substrate. HDAC6 enzymatic assays contained 2 ng HDAC6 and 10 uM of HDAC substrate. HDAC7 enzymatic assays contained 0.05 ng HDAC7 and 2 uM of HDAC substrate. HDAC8 enzymatic assays contained 5 ng HDAC8 and 2 uM of HDAC substrate. HDAC9 enzymatic assays contained 1 ng HDAC9 and 2 uM of HDAC substrate. HDAC10 enzymatic assays contained 75 ng HDAC10 and 10 uM of HDAC substrate. HDAC11 enzymatic assays contained 5 ng HDAC11 and 2 uM of HDAC substrate.

HDAC10 = HDAC10 (Homo sapiens (Human), UniProt Q969S8); assay: HDAC10 enzymatic assay; format: biochemical; conditions: selectivity profile; read-out: HDAC Enzyme IC50, HDAC 10
Description: as §1, §2, §3, §4

HDAC5 = HDAC5 (Homo sapiens (Human), UniProt Q9UQL6); assay: HDAC5 enzymatic assay; format: biochemical; conditions: selectivity profile; read-out: HDAC Enzyme IC50, HDAC 5
Description: as §1, §2, §3, §4

HDAC1 = HDAC1 (Homo sapiens (Human), UniProt Q13547); assay: HDAC1 enzymatic assay; format: biochemical
Summary of the method: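 Compound inhibition of human HDAC1 (0.5 ng enzyme, 10 uM substrate) was assessed by fluorescence after developer treatment, excitation 360 nm and emission 460 nm. Percent activity was normalized to no-compound (100%) and no-enzyme (0%) controls, plotted against concentration, and fitted to a sigmoidal dose-response curve in Graphpad Prism to obtain IC50 at half-maximal activity.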

HDAC7 = HDAC7 (Homo sapiens (Human), UniProt Q8WUI4); assay: HDAC7 enzymatic assay; format: biochemical; conditions: selectivity profile; read-out: HDAC Enzyme IC50, HDAC 7
Description: as §1, §2, §3, §4

HDAC6 = HDAC6 (Homo sapiens (Human), UniProt Q9UBN7); assay: HDAC6 enzymatic assay; format: biochemical
Summary of the method: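 Following a 17 hour room-temperature incubation of 2 ng HDAC6 with 10 uM substrate and compound, 50 μl developer was added for another 20 minutes, and fluorescence (excitation 360 nm, emission 460 nm) was recorded. Activity was normalized to no-compound (100%) and no-enzyme (0%) wells, and IC50 came from sigmoidal dose-response fitting in Graphpad Prism.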

HDAC2 = HDAC2 (Homo sapiens (Human), UniProt Q92769); assay: HDAC2 enzymatic assay; format: biochemical; conditions: selectivity profile; read-out: HDAC Enzyme IC50, HDAC 2
Description: as §1, §2, §3, §4

HDAC4 = HDAC4 (Homo sapiens (Human), UniProt P56524); assay: HDAC4 enzymatic assay; format: biochemical; conditions: selectivity profile; read-out: HDAC Enzyme IC50, HDAC 4
Description: as §1, §2, §3, §4

HDAC11 = HDAC11 (Homo sapiens (Human), UniProt Q96DB2); assay: HDAC11 enzymatic assay; format: biochemical; conditions: selectivity profile; read-out: HDAC Enzyme IC50, HDAC 11
Description: as §1, §2, §3, §4

HDAC9 = HDAC9 (Homo sapiens (Human), UniProt Q9UKV0); assay: HDAC9 enzymatic assay; format: biochemical; conditions: selectivity profile; read-out: HDAC Enzyme IC50, HDAC 9
Description: as §1, §2, §3, §4

HDAC8 = HDAC8 (Homo sapiens (Human), UniProt Q9BY41); assay: HDAC8 enzymatic assay; format: biochemical; conditions: selectivity profile; read-out: HDAC Enzyme IC50, HDAC 8
Description: as §1, §2, §3, §4

[1] = Mouse Pharmacokinetics, oral single dose; format: in vivo, male Swiss Albino mice; conditions: male, Swiss Albino, plasma, 5 mg/kg, formulation by footnote: a 20% CremEL in H20, b 1% CMC in water, c 2% DMSO, 0.2% Tween80, 97.8% of 1% CMC
Description: Example 187: Mouse Pharmacokinetics
A dose of 5 mg/kg in an appropriate formulation was administered by oral gavage to fasted male Swiss Albino mice (n=3), and the plasma was collected at 0, 0.25, 0.5, 1, 2, 4, 8, and 24 h. Plasma levels were measured by HPLC/MS/MS methods and the pharmacokinetic parameters were determined for individual animals from plasma concentration-time data using noncompartmental model 200-202 in Phoenix WinNonlin 6.3.

[2] = selectivity profile, read-out: HDAC Enzyme IC50, HDAC 1
[3] = selectivity profile, read-out: HDAC Enzyme IC50, HDAC 6

Chain of HDAC1 (Q13547 whole entry): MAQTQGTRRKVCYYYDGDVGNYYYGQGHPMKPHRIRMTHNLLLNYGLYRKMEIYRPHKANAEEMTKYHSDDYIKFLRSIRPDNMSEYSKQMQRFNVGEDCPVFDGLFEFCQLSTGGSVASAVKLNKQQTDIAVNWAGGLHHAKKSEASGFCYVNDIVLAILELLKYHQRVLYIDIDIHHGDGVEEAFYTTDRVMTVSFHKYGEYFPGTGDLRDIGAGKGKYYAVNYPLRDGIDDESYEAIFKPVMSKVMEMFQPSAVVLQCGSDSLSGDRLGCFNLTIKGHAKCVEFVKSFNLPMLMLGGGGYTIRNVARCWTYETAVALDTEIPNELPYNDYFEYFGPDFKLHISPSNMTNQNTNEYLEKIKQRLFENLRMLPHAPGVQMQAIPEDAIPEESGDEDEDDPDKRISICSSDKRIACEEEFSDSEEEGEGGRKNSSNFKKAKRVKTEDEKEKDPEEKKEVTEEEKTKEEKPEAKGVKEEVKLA
Chain of HDAC6 (Q9UBN7 whole entry): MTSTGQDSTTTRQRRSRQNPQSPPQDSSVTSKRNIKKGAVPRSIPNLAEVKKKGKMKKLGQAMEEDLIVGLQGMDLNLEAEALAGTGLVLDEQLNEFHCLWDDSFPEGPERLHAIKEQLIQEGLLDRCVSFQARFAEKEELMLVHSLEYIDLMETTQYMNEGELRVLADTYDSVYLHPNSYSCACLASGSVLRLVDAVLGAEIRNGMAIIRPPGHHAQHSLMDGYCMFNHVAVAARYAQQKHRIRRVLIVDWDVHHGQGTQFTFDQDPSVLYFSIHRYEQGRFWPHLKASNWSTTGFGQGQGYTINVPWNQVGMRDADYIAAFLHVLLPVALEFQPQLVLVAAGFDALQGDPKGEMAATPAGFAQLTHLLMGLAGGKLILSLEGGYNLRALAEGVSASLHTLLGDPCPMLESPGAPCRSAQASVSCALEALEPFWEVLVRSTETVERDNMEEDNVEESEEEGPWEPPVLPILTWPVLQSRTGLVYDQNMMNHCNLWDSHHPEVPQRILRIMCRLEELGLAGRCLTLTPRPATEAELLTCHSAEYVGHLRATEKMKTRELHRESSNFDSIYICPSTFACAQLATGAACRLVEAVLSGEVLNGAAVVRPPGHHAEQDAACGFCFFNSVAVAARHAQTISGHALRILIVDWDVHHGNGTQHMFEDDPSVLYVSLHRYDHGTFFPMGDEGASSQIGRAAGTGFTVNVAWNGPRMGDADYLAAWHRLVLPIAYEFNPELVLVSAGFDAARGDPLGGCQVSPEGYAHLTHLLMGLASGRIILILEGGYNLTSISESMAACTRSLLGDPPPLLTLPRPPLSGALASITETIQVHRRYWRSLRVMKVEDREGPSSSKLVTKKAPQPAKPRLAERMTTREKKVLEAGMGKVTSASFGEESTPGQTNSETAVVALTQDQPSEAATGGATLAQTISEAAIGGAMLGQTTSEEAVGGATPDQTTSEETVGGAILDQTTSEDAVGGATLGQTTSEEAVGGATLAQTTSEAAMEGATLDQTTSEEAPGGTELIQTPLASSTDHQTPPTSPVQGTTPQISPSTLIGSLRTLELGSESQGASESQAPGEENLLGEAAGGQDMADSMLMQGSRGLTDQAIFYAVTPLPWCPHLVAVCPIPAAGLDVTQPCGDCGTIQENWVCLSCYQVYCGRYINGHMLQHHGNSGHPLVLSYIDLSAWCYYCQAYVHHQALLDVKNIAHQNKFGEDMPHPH
Chain of HDAC4 (P56524 whole entry, species assumed): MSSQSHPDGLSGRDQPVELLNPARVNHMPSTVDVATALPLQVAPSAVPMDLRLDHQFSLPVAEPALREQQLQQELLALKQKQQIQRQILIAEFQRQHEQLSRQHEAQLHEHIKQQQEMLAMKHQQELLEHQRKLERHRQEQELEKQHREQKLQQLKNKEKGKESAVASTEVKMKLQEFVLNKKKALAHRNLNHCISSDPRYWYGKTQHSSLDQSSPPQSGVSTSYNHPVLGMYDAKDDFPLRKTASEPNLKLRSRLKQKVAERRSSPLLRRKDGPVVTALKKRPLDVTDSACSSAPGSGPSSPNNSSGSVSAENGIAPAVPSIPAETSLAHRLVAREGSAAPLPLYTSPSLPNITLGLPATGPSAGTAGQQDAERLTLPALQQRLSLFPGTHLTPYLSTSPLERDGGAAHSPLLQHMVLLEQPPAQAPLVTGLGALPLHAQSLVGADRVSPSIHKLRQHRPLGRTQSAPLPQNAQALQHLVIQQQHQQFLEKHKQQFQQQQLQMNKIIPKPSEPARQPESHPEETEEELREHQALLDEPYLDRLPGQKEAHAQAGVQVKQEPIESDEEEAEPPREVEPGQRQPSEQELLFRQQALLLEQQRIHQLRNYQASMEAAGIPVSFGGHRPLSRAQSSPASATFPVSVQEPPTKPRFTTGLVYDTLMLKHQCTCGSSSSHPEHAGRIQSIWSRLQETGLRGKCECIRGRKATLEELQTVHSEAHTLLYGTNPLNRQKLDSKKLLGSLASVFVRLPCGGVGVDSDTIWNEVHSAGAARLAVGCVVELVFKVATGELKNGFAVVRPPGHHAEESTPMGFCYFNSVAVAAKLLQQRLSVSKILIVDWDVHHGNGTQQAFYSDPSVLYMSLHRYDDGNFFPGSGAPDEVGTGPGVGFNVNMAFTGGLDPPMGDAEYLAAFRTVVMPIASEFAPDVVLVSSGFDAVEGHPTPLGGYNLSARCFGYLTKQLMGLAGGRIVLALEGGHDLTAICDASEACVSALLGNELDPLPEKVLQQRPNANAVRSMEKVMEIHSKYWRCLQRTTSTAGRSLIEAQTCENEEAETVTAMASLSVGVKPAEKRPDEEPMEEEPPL
Chain of HDAC2 (Q92769 whole entry, species assumed): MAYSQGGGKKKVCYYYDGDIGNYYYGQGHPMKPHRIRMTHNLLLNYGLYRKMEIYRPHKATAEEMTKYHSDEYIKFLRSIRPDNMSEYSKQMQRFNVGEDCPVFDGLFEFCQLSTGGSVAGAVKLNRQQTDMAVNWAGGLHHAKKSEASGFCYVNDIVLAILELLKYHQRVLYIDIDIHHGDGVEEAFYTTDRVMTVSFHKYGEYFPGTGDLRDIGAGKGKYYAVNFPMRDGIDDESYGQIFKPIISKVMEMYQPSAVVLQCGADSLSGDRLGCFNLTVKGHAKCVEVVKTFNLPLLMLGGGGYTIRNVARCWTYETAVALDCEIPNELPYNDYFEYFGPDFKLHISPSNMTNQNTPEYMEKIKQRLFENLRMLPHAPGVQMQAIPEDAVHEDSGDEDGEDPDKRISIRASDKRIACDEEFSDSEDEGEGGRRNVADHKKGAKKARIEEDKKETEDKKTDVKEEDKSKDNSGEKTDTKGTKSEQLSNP
Chain of HDAC9 (Q9UKV0 whole entry, species assumed): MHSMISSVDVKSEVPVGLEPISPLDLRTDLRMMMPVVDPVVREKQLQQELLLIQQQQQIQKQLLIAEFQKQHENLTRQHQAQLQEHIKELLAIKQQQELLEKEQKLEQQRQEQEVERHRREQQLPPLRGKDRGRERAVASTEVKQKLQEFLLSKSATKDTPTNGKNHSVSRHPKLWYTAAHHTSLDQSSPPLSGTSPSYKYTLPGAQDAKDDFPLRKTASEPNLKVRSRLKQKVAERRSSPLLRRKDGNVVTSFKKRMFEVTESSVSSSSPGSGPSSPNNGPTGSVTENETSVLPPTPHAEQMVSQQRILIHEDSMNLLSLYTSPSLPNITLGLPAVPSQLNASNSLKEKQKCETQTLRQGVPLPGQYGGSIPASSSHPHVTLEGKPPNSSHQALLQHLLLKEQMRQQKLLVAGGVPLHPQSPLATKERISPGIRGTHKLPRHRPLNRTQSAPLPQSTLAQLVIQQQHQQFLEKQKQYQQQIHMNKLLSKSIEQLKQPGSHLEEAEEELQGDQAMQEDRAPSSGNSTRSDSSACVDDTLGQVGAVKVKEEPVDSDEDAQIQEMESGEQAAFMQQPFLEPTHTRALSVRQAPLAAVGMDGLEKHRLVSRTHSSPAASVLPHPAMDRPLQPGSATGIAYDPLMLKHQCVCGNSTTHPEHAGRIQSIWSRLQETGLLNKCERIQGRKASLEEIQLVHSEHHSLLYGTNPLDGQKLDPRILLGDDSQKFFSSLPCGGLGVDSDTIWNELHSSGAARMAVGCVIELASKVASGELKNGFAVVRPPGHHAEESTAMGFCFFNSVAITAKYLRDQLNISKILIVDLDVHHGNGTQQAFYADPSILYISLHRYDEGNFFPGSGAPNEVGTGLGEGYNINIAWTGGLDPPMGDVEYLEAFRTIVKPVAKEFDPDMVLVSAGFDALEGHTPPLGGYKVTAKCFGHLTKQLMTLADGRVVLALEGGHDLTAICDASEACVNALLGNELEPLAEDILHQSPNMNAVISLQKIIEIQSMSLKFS
Chain of HDAC8 (Q9BY41 whole entry, species assumed): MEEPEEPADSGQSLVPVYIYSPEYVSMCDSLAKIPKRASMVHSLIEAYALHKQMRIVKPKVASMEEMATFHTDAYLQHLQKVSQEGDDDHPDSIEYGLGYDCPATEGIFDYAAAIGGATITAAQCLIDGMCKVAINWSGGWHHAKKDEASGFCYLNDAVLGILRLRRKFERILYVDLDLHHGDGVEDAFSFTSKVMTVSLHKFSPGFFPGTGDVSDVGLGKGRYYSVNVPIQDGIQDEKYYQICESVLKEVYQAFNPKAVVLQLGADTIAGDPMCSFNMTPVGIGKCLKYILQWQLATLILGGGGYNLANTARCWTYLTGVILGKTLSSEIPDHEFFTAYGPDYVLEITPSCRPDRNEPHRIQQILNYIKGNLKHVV
Chain of HDAC11 (Q96DB2 whole entry, species assumed): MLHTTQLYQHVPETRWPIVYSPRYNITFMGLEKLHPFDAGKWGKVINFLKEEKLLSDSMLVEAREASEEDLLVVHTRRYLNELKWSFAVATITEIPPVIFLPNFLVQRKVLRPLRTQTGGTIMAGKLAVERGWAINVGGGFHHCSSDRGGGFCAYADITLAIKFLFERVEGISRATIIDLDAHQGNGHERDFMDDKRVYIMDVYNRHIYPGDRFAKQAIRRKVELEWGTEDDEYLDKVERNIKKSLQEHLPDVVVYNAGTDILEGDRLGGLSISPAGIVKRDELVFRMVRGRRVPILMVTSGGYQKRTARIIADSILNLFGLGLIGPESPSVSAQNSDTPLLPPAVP

| SMILES | IC50 (HDAC3/NCOR2) | IC50 (HDAC10) | IC50 (HDAC5) | IC50 (HDAC1; read-out: Human HDAC1 IC50) | IC50 (HDAC1; [2]) | IC50 (HDAC7) | IC50 (HDAC6; read-out: Human HDAC6 IC50) | IC50 (HDAC6; [3]) | IC50 (HDAC2) | IC50 (HDAC4) | IC50 (HDAC11) | IC50 (HDAC9) | IC50 (HDAC8) | Cmax [1] | half-life [1] |
| --- | --- | --- | --- | --- | --- | --- | --- | --- | --- | --- | --- | --- | --- | --- | --- |
| CS(=O)(=O)NCC(Nc1ncc(-c2nnc(C(F)F)o2)cn1)c1ccc(OC(F)(F)F)cc1 (single isomer, unassigned) [122(+), N-(2-((5-(5-(difluoromethyl)-1,3,4-oxadiazol-2-yl)pyrimidin-2-yl)amino)-2-(4-(trifluoromethoxy)phenyl)ethyl)methanesulfonamide] | > 30 µM | > 30 µM | > 30 µM | > 30 µM | > 30 µM | 26.7 µM | 0.031 µM | 0.031 µM | > 30 µM | 8.4 µM | > 30 µM | > 30 µM | > 30 µM | 2930 ng/mL | 18.4 h |
| O=S(=O)(NCC(Nc1ncc(-c2nnc(C(F)F)o2)cn1)c1ccc(F)cc1)C1CC1 (stereo not drawn) [Example 110, N-(2-((5-(5-(difluoromethyl)-1,3,4-oxadiazol-2-yl)pyrimidin-2-yl)amino)-2-(4-fluorophenyl)ethyl)cyclopropanesulfonamide] | > 30 µM | > 30 µM | > 30 µM | > 30 µM | > 30 µM | > 30 µM | 0.028 µM | 0.028 µM | > 30 µM | > 30 µM | > 30 µM | > 30 µM | > 30 µM | 830 ng/mL | 4.3 h |
